The target of one experiment is T1, human PTH1 receptor (Homo sapiens, UniProt Q03431).
T1 sequence (Q03431 27-593): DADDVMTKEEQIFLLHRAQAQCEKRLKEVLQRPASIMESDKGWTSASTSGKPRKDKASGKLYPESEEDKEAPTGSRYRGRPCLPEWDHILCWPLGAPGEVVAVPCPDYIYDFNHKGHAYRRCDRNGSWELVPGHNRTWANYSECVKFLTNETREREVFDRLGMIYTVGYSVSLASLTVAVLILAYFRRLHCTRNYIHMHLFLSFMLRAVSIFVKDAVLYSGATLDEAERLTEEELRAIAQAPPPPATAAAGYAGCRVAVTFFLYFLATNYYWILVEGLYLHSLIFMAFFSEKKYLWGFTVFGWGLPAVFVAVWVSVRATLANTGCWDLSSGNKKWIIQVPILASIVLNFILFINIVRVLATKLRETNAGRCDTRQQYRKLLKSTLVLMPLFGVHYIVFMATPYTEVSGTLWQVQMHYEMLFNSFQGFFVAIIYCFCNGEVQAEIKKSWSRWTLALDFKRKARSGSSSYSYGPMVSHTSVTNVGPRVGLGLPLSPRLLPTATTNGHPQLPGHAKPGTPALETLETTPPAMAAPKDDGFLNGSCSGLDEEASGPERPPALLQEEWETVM
Briefly: In vitro cAMP signal activity in HKRK-B7 cells (LLC-PK1 cells overexpressing the human PTH1 receptor). The experiment is classed as cell-based. To be noted: HKRK-B7 cells; compound at 1×10^−3 M; […]; 0.1 µM.
For `CNC(=O)Nc1cccc(CCS(=O)(=O)N2CCC3(CC2)N=C(C2CCCCC2)NC3=O)c1C` [Compound 459, 1-{3-[2-(2-Cyclohexyl-4-oxo-1,3,8-triaza-spiro[4.5]dec-1-ene-8-sulfonyl)-ethyl]-2-methyl-phenyl}-3-methyl-urea], the “cAMP production activity (%)” value came to 55%.

`Cc1cc(N(C)C(=O)NCCN(C)C)ccc1/C=C/S(=O)(=O)N1CCC2(CC1)N=C(c1cccc(OC(F)(F)F)c1)NC2=O` [Compound 457, 3-(2-Dimethylamino-ethyl)-1-methyl-1-(3-methyl-4-{(E)-2-[4-oxo-2-(3-trifluoromethoxy-phenyl)-1,3,8-triaza-spiro[4.5]dec-1-ene-8-sulfonyl]-vinyl}-phenyl)-urea]: the “cAMP production activity (%)” value is recorded as 25%.

The experiment is the same for the next values; noted with them: HKRK-B7 cells; compound at 1×10^−3 M; cAMP produced as percentage of that produced by hPTH(1-34) at 100 nM.
Consider `O=C(Nc1ccc(/C=C/S(=O)(=O)N2CCC3(CC2)N=C(C2CCCCC2)NC3=O)c(C(F)(F)F)c1)C1CC1` [Compound 195, cyclopropanecarboxylic acid {4-[(E)-2-(2-cyclohexyl-4-oxo-1,3,8-triaza-spiro[4.5]dec-1-ene-8-sulfonyl)-vinyl]-3-trifluoromethyl-phenyl}-amide], for which the “cAMP production activity (%)” value turned out to be 36%.

On to `Cc1cc(C(=O)N2CCN(CCO)CC2)ccc1CCS(=O)(=O)N1CCC2(CC1)N=C(c1cccc(OC(F)(F)F)c1)NC2=O` [Compound 416, 8-(2-{4-[4-(2-Hydroxy-ethyl)-piperazine-1-carbonyl]-2-methyl-phenyl}-ethanesulfonyl)-2-(3-trifluoromethoxy-phenyl)-1,3,8-triaza-spiro[4.5]dec-1-en-4-one], for which the “cAMP production activity (%)” value is 66%.

As for `CC(=O)Nc1cc(C)c(CCS(=O)(=O)N2CCC3(CC2)N=C(C2CCCCC2)NC3=O)c(C)c1` [Compound 302, N-{4-[2-(2-cyclohexyl-4-oxo-1,3,8-triaza-spiro[4.5]dec-1-ene-8-sulfonyl)-ethyl]-3,5-dimethyl-phenyl}-acetamide], the “cAMP production activity (%)” value stood at 95%.

On to `Cc1cc(N(C)C(N)=O)cc(C)c1CCS(=O)(=O)N1CCC2(CC1)N=C(CCCCCCC(F)(F)F)NC2=O` [Compound 1045, 1-(3,5-dimethyl-4-{2-[4-oxo-2-(7,7,7-trifluoro-heptyl)-1,3,8-triaza-spiro[4.5]dec-1-ene-8-sulfonyl]-ethyl}-phenyl)-1-methyl-urea], for which the “cAMP production activity (%)” value turned out to be 106%.

Take `O=C1NC(c2cccc(OC(F)(F)F)c2)=NC12CCN(S(=O)(=O)CCc1cccc3[nH]ccc13)CC2` [Compound 305, 8-[2-(1H-indol-4-yl)-ethanesulfonyl]-2-(3-trifluoromethoxy-phenyl)-1,3,8-triaza-spiro[4.5]dec-1-en-4-one]: the “cAMP production activity (%)” value was found to be 73%.

As to `Cc1cc(C(=O)N2CCCCC2)ccc1CCS(=O)(=O)N1CCC2(CC1)N=C(c1cccc(C(F)(F)F)c1)NC2=O` [Compound 380, 8-{2-[2-methyl-4-(piperidine-1-carbonyl)-phenyl]-ethanesulfonyl}-2-(3-trifluoromethyl-phenyl)-1,3,8-triaza-spiro[4.5]dec-1-en-4-one], the “cAMP production activity (%)” value was 75%.

Regarding `Cc1cc(C(=O)N2CCC(O)(CO)CC2)cc(C)c1/C=C/S(=O)(=O)N1CCC2(CC1)N=C(c1cccc(C(F)(F)F)c1)NC2=O` [Compound 386, 8-{(E)-2-[4-(4-hydroxy-4-hydroxymethyl-piperidine-1-carbonyl)-2,6-dimethyl-phenyl]-ethenesulfonyl}-2-(3-trifluoromethyl-phenyl)-1,3,8-triaza-spiro[4.5]dec-1-en-4-one], the “cAMP production activity (%)” value is listed as 86%.

For `Cc1ccc(OCCC(O)CO)cc1/C=C/S(=O)(=O)N1CCC2(CC1)N=C(c1cccc(OC(F)(F)F)c1)NC2=O` (centres unmarked) [Compound 255, 8-{(E)-2-[5-(3,4-dihydroxy-butoxy)-2-methyl-phenyl]-ethenesulfonyl}-2-(3-trifluoromethoxy-phenyl)-1,3,8-triaza-spiro[4.5]dec-1-en-4-one], the “cAMP production activity (%)” value stood at 64%.

Consider `O=C1NC(C2CCCCC2)=NC12CCN(S(=O)(=O)/C=C/c1c(F)cccc1C(F)(F)F)CC2` [Compound 183, 2-cyclohexyl-8-[(E)-2-(2-fluoro-6-trifluoromethyl-phenyl)-ethenesulfonyl]-1,3,8-triaza-spiro[4.5]dec-1-en-4-one], for which the “cAMP production activity (%)” value was found to be 68%.

Consider `CC(=O)OC[C@H](CN(C(C)=O)c1ccc(CCS(=O)(=O)N2CCC3(CC2)N=C(c2ccc(F)c(C(F)(F)F)c2)NC3=O)c(C)c1)OC(C)=O` [Compound 153, acetic acid (S)-1-acetoxymethyl-2-[acetyl-(4-{2-[2-(4-fluoro-3-trifluoromethyl-phenyl)-4-oxo-1,3,8-triaza-spiro[4.5]dec-1-ene-8-sulfonyl]-ethyl}-3-methyl-phenyl)-amino]-ethyl ester], for which the “cAMP production activity (%)” value was 59%.

For `CCC1CCC(C2=NC3(CCN(S(=O)(=O)CCc4ccc(NC(C)=O)c(Cl)c4C)CC3)C(=O)N2)CC1` (centres unmarked) [Compound 954, N-(2-chloro-4-{2-[2-(4-ethyl-cyclohexyl)-4-oxo-1,3,8-triaza-spiro[4.5]dec-1-ene-8-sulfonyl]-ethyl}-3-methyl-phenyl)-acetamide], the “cAMP production activity (%)” value came out at 81%.

For `Cc1cc(N(C)C(=O)CO)ccc1CCS(=O)(=O)N1CCC2(CC1)N=C(c1cccc(OC(F)(F)F)c1)NC2=O` [Compound 300, 2-hydroxy-N-methyl-N-(3-methyl-4-{2-[4-oxo-2-(3-trifluoromethoxy-phenyl)-1,3,8-triaza-spiro[4.5]dec-1-ene-8-sulfonyl]-ethyl}-phenyl)-acetamide], the “cAMP production activity (%)” value was 73%.

For `Cc1cc(C(=O)N2CCN(C)CC2)ccc1CCS(=O)(=O)N1CCC2(CC1)N=C(c1cccc(C(F)(F)F)c1)NC2=O` [Compound 289, 8-{2-[2-methyl-4-(4-methyl-piperazine-1-carbonyl)-phenyl]-ethanesulfonyl}-2-(3-trifluoromethyl-phenyl)-1,3,8-triaza-spiro[4.5]dec-1-en-4-one], the “cAMP production activity (%)” value stood at 99%.

For the compound `CCCS(=O)(=O)CCCCCC1=NC2(CCN(S(=O)(=O)CCc3c(C)cc(N(C)C(N)=O)cc3C)CC2)C(=O)N1` [Compound 1356, 1-[3,5-dimethyl-4-(2-{4-oxo-2-[5-(propane-1-sulfonyl)-pentyl]-1,3,8-triaza-spiro[4.5]dec-1-ene-8-sulfonyl}-ethyl)-phenyl]-1-methyl-urea], the “cAMP production activity (%)” value is reported as 14%.

As to `Cc1cc(CCS(=O)(=O)N2CCC3(CC2)N=C(C2CCC(C)CC2)NC3=O)cc(C)c1N1C(=O)CNC1=O` (centres unmarked) [Compound 749, 3-(2,6-dimethyl-4-{2-[2-(4-methyl-cyclohexyl)-4-oxo-1,3,8-triaza-spiro[4.5]dec-1-ene-8-sulfonyl]-ethyl}-phenyl)-imidazolidine-2,4-dione], the “cAMP production activity (%)” value is recorded as 77%.

For the compound `CC1=NC2(CCN(S(=O)(=O)c3cccc(Cl)c3)CC2)C(=O)N1` [Compound 8, 8-(3-chloro-benzenesulfonyl)-2-methyl-1,3,8-triaza-spiro[4.5]dec-1-en-4-one], the “cAMP production activity (%)” value came out at 2.6%.

With `Cc1cc(C(=O)N(C)C)ccc1CCS(=O)(=O)N1CCC2(CC1)N=C(c1cccc(S(C)(=O)=O)c1)NC2=O` [Compound 110, 4-{2-[2-(3-methanesulfonyl-phenyl)-4-oxo-1,3,8-triaza-spiro[4.5]dec-1-ene-8-sulfonyl]-ethyl}-3,N,N-trimethyl-benzamide], the “cAMP production activity (%)” value amounted to 25%.

In the case of `Cc1cc(N(C)C(N)=O)cc(C)c1CCS(=O)(=O)N1CCC2(CC1)N=C(CCCCCCCCCCCNC(=O)OC(C)(C)C)NC2=O` [Compound 1360, [11-(8-{2-[2,6-dimethyl-4-(1-methyl-ureido)-phenyl]-ethanesulfonyl}-4-oxo-1,3,8-triaza-spiro[4.5]dec-1-en-2-yl)-undecyl]-carbamic acid tert-butyl ester], the “cAMP production activity (%)” value stood at 121%.

As to `Cc1cc(N2CCOCC2=O)cc(C)c1CCS(=O)(=O)N1CCC2(CC1)N=C(C1CCC(C)CC1)NC2=O` (centres unmarked) [Compound 765, 8-{2-[2,6-dimethyl-4-(3-oxo-morpholin-4-yl)-phenyl]-ethanesulfonyl}-2-(4-methyl-cyclohexyl)-1,3,8-triaza-spiro[4.5]dec-1-en-4-one], the “cAMP production activity (%)” value turned out to be 101%.

With `Cc1cc(C(=O)N(C)C)ccc1CCS(=O)(=O)N1CCC2(CC1)N=C(c1cccc(OC(F)(F)F)c1)N=C2NCC1CCCCC1` [Compound 898, 4-{2-[4-(cyclohexylmethyl-amino)-2-(3-trifluoromethoxy-phenyl)-1,3,8-triaza-spiro[4.5]deca-1,3-diene-8-sulfonyl]-ethyl}-3,N,N-trimethyl-benzamide], the “cAMP production activity (%)” value is reported as 4.3%.

In the case of `CC(=O)N(CCO)c1cc(C)c(/C=C/S(=O)(=O)N2CCC3(CC2)N=C(c2ccc(F)c(C(F)(F)F)c2)NC3=O)c(C)c1` [Compound 718, N-(4-{(E)-2-[2-(4-Fluoro-3-trifluoromethyl-phenyl)-4-oxo-1,3,8-triaza-spiro[4.5]dec-1-ene-8-sulfonyl]-vinyl}-3,5-dimethyl-phenyl)-N-(2-hydroxy-ethyl)-acetamide], the “cAMP production activity (%)” value is given as 74%.

The values above are taken from patent publication US9169254B2, “Spiroimidazolone derivative” (Chugai Seiyaku Kabushiki Kaisha, priority 2009, dated 2015).
